Key:
[1] = system: HCV genotype 1a replicon, NS3 T260A; assay: Luciferase replicon transient transfection assay, genotype 1a NS3 T260A; assay type: cell-based, hepatitis C virus
Experimental: (§1) The luciferase replicon transient transfection assay measures the ability of a test compound to inhibit the replication of a transiently-transfected HCV luciferase-bearing wild-type or mutant replicon in cured human hepatoma cells (Huh7.5). The inhibition of HCV replication was measured by quantification of luciferase protein expression. This assay has been validated using a panel of genotype 1a and 1b replicons bearing mutations known to be associated with resistance to BMS-790052. Briefly, subconfluent Huh7.5 cells were electroporated with 10 μg of wild-type or mutant luciferase-bearing HCV replicon RNA. The cells were then seeded in 96-well opaque white plates at 3×10^4 cells/well in 150 μL/well and incubated for 4 hrs at 37° C./5% CO2. Ten 1:5 serial dilutions of each test compound were made in media (DMEM containing glucose, L-glutamine and sodium pyruvate, 10% fetal bovine serum, 100 IU/mL penicillin, 100 μg/mL streptomycin, 2 mM GlutaMAX, and 1×MEM non-essential amino acids (Mediatech, Inc. and Invitrogen Corp.)) at concentrations that were 4× higher than the final concentrations to be tested and 50 μL/well was added to the transfected cells. Untreated, mock-transfected cells served as a negative control of luciferase expression. The plates were incubated at 37° C./5% CO2 for 4 days whereupon the media was removed and 50 μL of ONE-glo luciferase substrate (Promega) was added to each well. The plates were agitated on a rotating platform at room temperature for 3 min and read in a Victor^3V microplate reader (Perkin-Elmer) using a 700 nm cut-off filter with a 1 sec read time. EC50 values were calculated from dose response curves from the resulting best-fit equations determined by Microsoft Excel and XLfit 4.1 software.
(§2) To determine the replication capacity of each mutant relative to the wild-type parental replicon, transfected cells were plated on two plates and were not treated with compound. Luciferase activity was measured at time points of 4 hrs and 4 days after plating for each replicon. Replication capacity was calculated by dividing the day 4 CPS by the 4 hour CPS for each replicon and determining the percentage present for each mutant replicon relative to wild-type replicon values. The NS3, NS4B, and NS5B mutants were prepared and tested according to the methods described herein.

[2] = system: 1a-luc L31V (HCV genotype 1a replicon); assay: Luciferase replicon transient transfection assay, 1a-luc L31V; assay type: cell-based, hepatitis C virus
Experimental: as §1

[3] = system: ZS11-luc Y93N (HCV genotype 1b replicon); assay: Luciferase replicon transient transfection assay, ZS11-luc Y93N; assay type: cell-based, hepatitis C virus
Experimental: as §1

[4] = system: ZS11-luc R30E (HCV genotype 1b replicon); assay: Luciferase replicon transient transfection assay, ZS11-luc R30E; assay type: cell-based, hepatitis C virus
Experimental: as §1

[5] = system: 1a-luc Y93H (HCV genotype 1a replicon); assay: Luciferase replicon transient transfection assay, 1a-luc Y93H; assay type: cell-based, hepatitis C virus
Experimental: as §1

[6] = system: ZS11-luc WT (HCV genotype 1b replicon); assay: Luciferase replicon transient transfection assay, ZS11-luc WT; assay type: cell-based, hepatitis C virus; conditions: Hepatitis C virus, Huh7.5, 96 h, genotype 1b, ZS11-luc WT, Huh7.5 cells, 4 days
Experimental: as §1

[7] = system: 1a-luc Q30R (HCV genotype 1a replicon); assay: Luciferase replicon transient transfection assay, 1a-luc Q30R; assay type: cell-based, hepatitis C virus
Experimental: as §1

[8] = system: 1a-luc P32L (HCV genotype 1a replicon); assay: Luciferase replicon transient transfection assay, 1a-luc P32L; assay type: cell-based, hepatitis C virus
Experimental: as §1

[9] = system: HCV genotype 1a replicon, NS4B E15G; assay: Luciferase replicon transient transfection assay, genotype 1a NS4B E15G; assay type: cell-based, hepatitis C virus
Experimental: as §1, §2

[10] = system: 1a-luc Q30H (HCV genotype 1a replicon); assay: Luciferase replicon transient transfection assay, 1a-luc Q30H; assay type: cell-based, hepatitis C virus
Experimental: as §1

[11] = system: ZS11-luc P32L (HCV genotype 1b replicon); assay: Luciferase replicon transient transfection assay, ZS11-luc P32L; assay type: cell-based, hepatitis C virus
Experimental: as §1

[12] = system: 1a-luc Y93N (HCV genotype 1a replicon); assay: Luciferase replicon transient transfection assay, 1a-luc Y93N; assay type: cell-based, hepatitis C virus
Experimental: as §1

[13] = system: 1a-luc M28T (HCV genotype 1a replicon); assay: Luciferase replicon transient transfection assay, 1a-luc M28T; assay type: cell-based, hepatitis C virus
Experimental: as §1

[14] = system: 1a-luc L31F (HCV genotype 1a replicon); assay: Luciferase replicon transient transfection assay, 1a-luc L31F; assay type: cell-based, hepatitis C virus
Experimental: as §1

[15] = system: 1a-luc L31M (HCV genotype 1a replicon); assay: Luciferase replicon transient transfection assay, 1a-luc L31M; assay type: cell-based, hepatitis C virus
Experimental: as §1

[16] = system: ZS11-luc L28T (HCV genotype 1b replicon); assay: Luciferase replicon transient transfection assay, ZS11-luc L28T; assay type: cell-based, hepatitis C virus
Experimental: as §1

[17] = system: ZS11-luc Y93C (HCV genotype 1b replicon); assay: Luciferase replicon transient transfection assay, ZS11-luc Y93C; assay type: cell-based, hepatitis C virus
Experimental: as §1

[18] = system: ZS11-luc L31M (HCV genotype 1b replicon); assay: Luciferase replicon transient transfection assay, ZS11-luc L31M; assay type: cell-based, hepatitis C virus
Experimental: as §1

[19] = system: ZS11-luc Y93H (HCV genotype 1b replicon); assay: Luciferase replicon transient transfection assay, ZS11-luc Y93H; assay type: cell-based, hepatitis C virus
Experimental: as §1

[20] = system: ZS11-luc L31V (HCV genotype 1b replicon); assay: Luciferase replicon transient transfection assay, ZS11-luc L31V; assay type: cell-based, hepatitis C virus
Experimental: as §1

[21] = system: 1a-luc WT (HCV genotype 1a replicon); assay: Luciferase replicon transient transfection assay, 1a-luc WT; assay type: cell-based; conditions: Hepatitis C virus, 96 h, Huh7.5 cells, 4 days
Experimental: as §1

[22] = system: 1a-luc Q30E (HCV genotype 1a replicon); assay: Luciferase replicon transient transfection assay, 1a-luc Q30E; assay type: cell-based, hepatitis C virus
Experimental: as §1

[23] = system: HCV genotype 1a replicon, NS5A E295G; assay: Luciferase replicon transient transfection assay, genotype 1a NS5A E295G; assay type: cell-based, hepatitis C virus
Experimental: as §1

[24] = system: ZS11-luc L31F (HCV genotype 1b replicon); assay: Luciferase replicon transient transfection assay, ZS11-luc L31F; assay type: cell-based, hepatitis C virus
Experimental: as §1

[25] = system: 1a-luc Q30K (HCV genotype 1a replicon); assay: Luciferase replicon transient transfection assay, 1a-luc Q30K; assay type: cell-based, hepatitis C virus
Experimental: as §1

[26] = system: 1a-luc Y93C (HCV genotype 1a replicon); assay: Luciferase replicon transient transfection assay, 1a-luc Y93C; assay type: cell-based, hepatitis C virus
Experimental: as §1

[27] = system: HCV genotype 1a replicon, NS5A K24E; assay: Luciferase replicon transient transfection assay, genotype 1a NS5A K24E; assay type: cell-based, hepatitis C virus
Experimental: as §1

[28] = Hepatitis C virus, 96 h, Huh7.5 cells, 4 days

With `COC(=O)N[C@H](C(=O)N1CCC[C@H]1c1nc(-c2ccc(-c3ccc(-c4c[nH]c([C@@H]5CCCN5C(=O)[C@@H](NC(=O)OC)C(C)C)n4)cc3)cc2)c[nH]1)C(C)C` [BMS-790052, reference compound] the EC50 ([1]; Hepatitis C virus, genotype 1a, HCV region NS3, mutation T260A) was 0.031 nM, the Ratio ([1]; {}) was 1.74 and the Ratio [2] was 899. The EC50 [2, 28] was 23 nM, the Ratio [3] was 33 and the EC50 [3, 28] was 0.7 nM. It also gave a Ratio [4] of 7, an EC50 [4, 28] of 0.1 nM and a Ratio [5] of 1392. It also gave an EC50 [5, 28] of 35 nM, an EC50 [6] of 0.02 nM and a Ratio [7] of 95. The EC50 [7, 28] was 2 nM, the Ratio [8] was 142 and the EC50 [8, 28] was 4 nM. For the same compound, the EC50 ([9]; Hepatitis C virus, HCV region NS4B, mutation E15G) was 0.029 nM, the Ratio ([9]; NS4B E15G) was 1.62 and the Ratio [10] was 155. It also gave an EC50 [10, 28] of 4 nM, a Ratio [11] of 9 and an EC50 [11, 28] of 0.2 nM. It also gave a Ratio [12] of 7842, an EC50 [12, 28] of 192 nM and a Ratio [13] of 165. For the same compound, the EC50 [13, 28] was 4 nM, the Ratio [14] was 43 and the EC50 [14, 28] was 1 nM. The Ratio [15] was 115, the EC50 [15, 28] was 3 nM and the Ratio [16] was 25. It also gave an EC50 [16, 28] of 0.5 nM, a Ratio [17] of 2 and an EC50 [17, 28] of 0.04 nM. It also gave a Ratio [18] of 3, an EC50 [18, 28] of 0.06 nM and a Ratio [19] of 19. The EC50 [19, 28] was 0.4 nM, the Ratio [20] was 23 and the EC50 [20, 28] was 0.4 nM. The EC50 [21] was 0.026 nM, the Ratio [22] was 2935 and the EC50 [22, 28] was 74 nM. For the same compound, the EC50 ([23]; Hepatitis C virus, genotype 1a, HCV region NS5A, mutation E295G) was 0.028 nM, the Ratio ([23]; {}) was 1.56 and the Ratio [24] was 7. The EC50 [24, 28] was 0.1 nM, the Ratio [25] was 752 and the EC50 [25, 28] was 19 nM. It also gave a Ratio [26] of 287, an EC50 [26, 28] of 7 nM and an EC50 ([27]; Hepatitis C virus, genotype 1a, HCV region NS5A, mutation K24E) of 0.032 nM. The Ratio ([27]; {}) was 1.78.

Reference: patent US20120252721A1 (priority 2011, published 2012)
